Measurements from patent US20100248390A1, “COMPOSITIONS AND METHODS FOR IDENTIFYING LIGANDS OF ODORANT RECEPTORS” (DUKE UNIVERSITY, priority 2009, published 2010).
Read-outs that look alike come from different tables or passages of the source. Each block holds one compound with its values, some of them ahead of it.

Assays:
Experiment in all cases: CRE-luciferase assay of odorant receptor activation (Dual-Glo, Hana3A cells, RTP1S), dose-response EC50
Format in all cases: cell-based
[1] = tested on: mouse odorant receptors (ORs); settings: for log EC50, MOR271-1 / log EC50 (Table 4 value), MOR271-1: receptor MOR271-1
Description: (§1) Cloning mouse and human ORs. […] OR open reading frames were amplified from genomic DNA using proofreading KOD DNA polymerase (Toyobo/Novagen) and subcloned into pCI expression vectors (Promega) containing the first 20 residues of human rhodopsin (Rho tag). The sequences of the cloned receptors were verified by sequencing (3100 Genetic Analyzer, ABI Biosystems). Immunocytochemistry and FACS analysis. […] For FACS analysis, phycoerythrin (PE)-conjugated anti-mouse IgG (Jackson Immunologicals) was used. In order to monitor the transfection efficiency, Green Fluorescent Protein (GFP) was co-transfected with the OR. The intensity of receptor cell surface expression was calculated as the ratio of PE and GFP expression. 7-aminoactinomycin D (Calbiochem) was added before flow cytometry to mark dead cells which were excluded from the analysis. The gate and mean of PE positive cells was normalized by GFP values. Luciferase assay. […] Odorant receptor activation leads to an increase in intracellular cAMP; CRE-luciferase (Stratagene) was used to measure this change. […] Hana3A cells were plated on poly-D-lysine-coated 96-well plates (BioCoat; Becton Dickinson). […] For each 96-well plate transfected, 1 μg of CRE-Luc, 1 μg of pRL-SV40, 5 μg of odorant receptor plasmid, and 1 μg of RTP1S was used. Approximately 24 hours post transfection, the medium was replaced with CD293 chemically defined medium (Gibco) and the plate was incubed for 30 min at 37° C. The medium was then replaced with 25 μL of odorant solution diluted in CD293 and the plate was incubated for 4 hrs at 37° C. and 5% CO2. The manufacturer's protocols for measuring luciferase and Renilla luciferase activities was followed. […] All luminescence values were divided by the Renilla Luciferase activity to control for transfection efficiency in a given well. Normalized luciferase activity was calculated using the formula (LN−Lmin)/(Lmax−Lmin), where LN is the luminescence of firefly luciferase in response to the odorant, Lmin is the minimum luciferase value on a plate or set of plates, and Lmax is the maximum luciferase value on a plate or set of plates. The data was analyzed using Microsoft Excel and GraphPad Prism 4. Screening procedure. The entire OR library was stimulated with eight separate odorant mixtures formed from 93 odorants (FIG. 12). […] A comparison between the 93 individual odorants at a 100 μM dose and a no-odor control was performed for all 290 […]. Each comparison was performed in triplicate; statistical significance was assessed by t-test (uncorrected for multiple comparisons). […] A single odorant was used on each plate to avoid cross-contamination, and each OR odorant dose was tested at least three times. The data was fit to a sigmoidal curve. […] Physicochemical descriptors. […] Receptor descriptors. […] Correlations between descriptors and responses. […] All odorants for which there were fewer than 3 responsive receptors were eliminated. For all remaining odorant pairs the Pearson correlation between EC50 vectors and the Euclidean distance between descriptor vectors was calculated. The Pearson correlation between these two sets of distances was then measured. Optimizing descriptors. […] In this method one begins with an empty set of descriptors. Each descriptor is combined with the previous set of descriptors and correlation values are computed for all of these candidate sets of descriptors. To reduce overfitting, the data is randomly divided into ten subsets and correlation values are computed for each leave-one out subset. The final correlation coefficient for each set of descriptors is the average of the correlation coefficients for each subset. The set with the best correlation coefficient then becomes the new set of descriptors and the process is repeated until the correlation coefficient increases by less than 0.004 in three consecutive iterations.

[2] = target: T1, human odorant receptors (ORs) (Homo sapiens, UniProt Q8WZ94); settings: receptor OR5P3; 0 = no response; read-out: log EC50, OR5P3 (converted)
T1 construct: OR open reading frames were amplified from genomic DNA; expressed in transfected cells; host or cells: Hana3A cells, co-transfected with RTP1S, CRE-luciferase and pRL-SV40
T1 sequence (Q8WZ94 1-311): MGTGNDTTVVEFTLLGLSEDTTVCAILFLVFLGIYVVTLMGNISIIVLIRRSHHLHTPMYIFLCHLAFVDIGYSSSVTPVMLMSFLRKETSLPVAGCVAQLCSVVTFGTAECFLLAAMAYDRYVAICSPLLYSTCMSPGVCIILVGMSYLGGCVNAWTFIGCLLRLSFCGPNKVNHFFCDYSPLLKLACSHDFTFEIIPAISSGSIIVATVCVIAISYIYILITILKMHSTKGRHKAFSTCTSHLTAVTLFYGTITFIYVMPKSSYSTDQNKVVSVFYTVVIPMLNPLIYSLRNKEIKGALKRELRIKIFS
Description: as §1, with “For all remaining odorant pairs the Pearson correlation between EC50 vectors and the Euclidean distance between descriptor vectors was calculated.” left out, “subset.” for “subset. The set with the best correlation coefficient then becomes the new set of descriptors and the process is repeated until the correlation coefficient increases by less than 0.004 in three consecutive iterations.”
(§2) The entire OR library was stimulated with one of 8 odorant mixtures drawn from 93 odorants chosen to represent diverse functional groups, sizes, and structures (Table 3). Each mixture was applied at five different concentrations. […] The 93 odorants were then applied individually at 100 μM to the 290 mixture-responsive ORs.

[3] = target: T2, human odorant receptors (ORs) (Homo sapiens, UniProt Q9Y3N9)
T2 construct: OR open reading frames were amplified from genomic DNA; expressed in transfected cells; host or cells: Hana3A cells, co-transfected with RTP1S, CRE-luciferase and pRL-SV40
T2 sequence (Q9Y3N9 1-320): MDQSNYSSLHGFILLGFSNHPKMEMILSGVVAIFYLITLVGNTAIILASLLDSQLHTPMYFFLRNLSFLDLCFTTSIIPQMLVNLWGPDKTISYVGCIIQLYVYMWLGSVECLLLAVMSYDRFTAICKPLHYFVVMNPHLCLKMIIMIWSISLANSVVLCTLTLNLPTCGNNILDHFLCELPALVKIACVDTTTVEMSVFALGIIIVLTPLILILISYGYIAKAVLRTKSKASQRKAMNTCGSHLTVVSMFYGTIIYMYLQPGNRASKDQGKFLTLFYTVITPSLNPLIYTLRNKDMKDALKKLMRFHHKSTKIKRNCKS
Description: as §1, with “For all remaining odorant pairs the Pearson correlation between EC50 vectors and the Euclidean distance between descriptor vectors was calculated.” left out, “subset.” for “subset. The set with the best correlation coefficient then becomes the new set of descriptors and the process is repeated until the correlation coefficient increases by less than 0.004 in three consecutive iterations.”
as §2

[4] = target: T3, mouse odorant receptors (ORs) (Mus musculus, UniProt P23275)
T3 construct: OR open reading frames were amplified from genomic DNA; expressed in transfected cells; host or cells: Hana3A cells, co-transfected with RTP1S, CRE-luciferase and pRL-SV40
T3 sequence (P23275 1-312): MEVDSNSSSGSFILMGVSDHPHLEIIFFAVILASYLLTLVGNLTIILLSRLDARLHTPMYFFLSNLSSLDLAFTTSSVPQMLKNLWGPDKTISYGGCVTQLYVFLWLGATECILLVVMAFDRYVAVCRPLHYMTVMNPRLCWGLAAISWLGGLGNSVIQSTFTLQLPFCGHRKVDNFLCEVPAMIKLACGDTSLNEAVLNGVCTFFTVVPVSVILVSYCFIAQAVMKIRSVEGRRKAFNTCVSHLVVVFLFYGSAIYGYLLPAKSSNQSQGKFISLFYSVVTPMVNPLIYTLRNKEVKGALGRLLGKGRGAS
Description: as §1

[5] = target: T4, human odorant receptors (ORs) (Homo sapiens, UniProt Q9P1Q5)
T4 construct: OR open reading frames were amplified from genomic DNA; expressed in transfected cells; host or cells: Hana3A cells, co-transfected with RTP1S, CRE-luciferase and pRL-SV40
T4 sequence (Q9P1Q5 1-309): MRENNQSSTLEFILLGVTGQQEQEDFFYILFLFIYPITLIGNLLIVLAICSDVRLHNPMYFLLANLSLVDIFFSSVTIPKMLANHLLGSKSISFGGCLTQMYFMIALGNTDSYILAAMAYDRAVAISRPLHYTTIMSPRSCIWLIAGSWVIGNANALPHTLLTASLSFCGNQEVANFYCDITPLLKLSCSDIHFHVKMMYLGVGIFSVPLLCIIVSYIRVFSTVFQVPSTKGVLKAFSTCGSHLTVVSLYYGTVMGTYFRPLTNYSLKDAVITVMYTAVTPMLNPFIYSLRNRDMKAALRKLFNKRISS
Description: as §1, with “For all remaining odorant pairs the Pearson correlation between EC50 vectors and the Euclidean distance between descriptor vectors was calculated.” left out, “subset.” for “subset. The set with the best correlation coefficient then becomes the new set of descriptors and the process is repeated until the correlation coefficient increases by less than 0.004 in three consecutive iterations.”
as §2

[6] = receptor MOR41-1, 0 = no response
[7] = receptor OR2W1, 0 = no response, read-out: log EC50, OR2W1 (converted)
[8] = receptor MOR203-1, 0 = no response
[9] = receptor MOR272-1, 0 = no response
[10] = receptor OR1A1, 0 = no response, read-out: log EC50, OR1A1 (converted)

SMILES: CCCCCCO [1-Hexanol]
log EC50, MOR41-1 [1, 6]: −4.064
EC50 [2]: 175 µM
EC50 [3, 7]: 14.1 µM

SMILES: O=C1Cc2ccccc2O1 [2-Counpronon ?]
log EC50, MOR256-17 ([4]; receptor MOR256-17, 0 = no response): −4.575
log EC50, MOR1-1 ([1]; receptor MOR1-1, 0 = no response): −4.138
log EC50, MOR41-1 [1, 6]: −3.96
log EC50, MOR139-1 ([1]; receptor MOR139-1, 0 = no response): −3.585
log EC50, MOR258-1 ([1]; receptor MOR258-1, 0 = no response): −4.268
log EC50, MOR259-1 ([1]; receptor MOR259-1, 0 = no response): −3.63

SMILES: CCC(=O)C(=O)CC [34-Hexanedione]
EC50 [4]: 12 µM
log EC50 (Table 4 value), MOR41-1 ([1]; receptor MOR41-1): −4.692
log EC50 (Table 4 value), MOR271-1 [1]: −4.734
EC50 [3]: 16.6 µM

SMILES: C=CCc1ccccc1 [Allyl benzene]
EC50 [4]: 71.4 µM
log EC50 (Table 4 value), MOR105-1 ([1]; receptor MOR105-1): −3.332
log EC50 (Table 4 value), MOR106-1 ([1]; receptor MOR106-1): −3.921

SMILES: O=C(c1ccccc1)c1ccccc1 [Benzophenone]
log EC50 (Table 4 value), MOR162-1 ([1]; receptor MOR162-1): −3.685
log EC50 (Table 4 value), MOR259-1 ([1]; receptor MOR259-1): −4.442
log EC50 (Table 4 value), MOR269-1 ([1]; receptor MOR269-1): −3.652
EC50 [5]: 98.2 µM
EC50 [3]: 28.8 µM

More lines, now with the values ahead:

log EC50, MOR203-1 [1, 8]: −4.76
log EC50, MOR271-1 ([1]; 0 = no response): −4.581
log EC50, MOR272-1 [1, 9]: −5.073
EC50 [5, 10]: 39.9 µM
EC50 [3, 7]: 7.21 µM
SMILES: CCCCCC(C)=O [2-Haptonone]

log EC50, MOR203-1 [1, 8]: −5.064
EC50 [5, 10]: 265 µM
EC50 [3, 7]: 19.9 µM
SMILES: CCCCCCCC(C)=O [2-Noranone]

log EC50, MOR203-1 [1, 8]: −5.023
log EC50, MOR272-1 [1, 9]: −4.575
EC50 [5, 10]: 42.7 µM
EC50 [3, 7]: 39.9 µM
SMILES: CCCCCCC(C)=O [2-Octanone]

log EC50, MOR203-1 [1, 8]: −4.099
log EC50, MOR271-1 ([1]; 0 = no response): −5.235
log EC50, MOR272-1 [1, 9]: −5.221
EC50 [5, 10]: 19.4 µM
EC50 [3, 7]: 33.3 µM
SMILES: CCCCC(=O)CC [3-Haptonone]

log EC50 (Table 4 value), MOR203-1 ([1]; receptor MOR203-1): −4.4
log EC50 (Table 4 value), MOR271-1 [1]: −4.139
log EC50 (Table 4 value), MOR272-1 ([1]; receptor MOR272-1): −4.197
EC50 ([5]; receptor OR1A1, read-out: log EC50 (Table 4 value), OR1A1 (converted)): 5.12 µM
EC50 ([3]; receptor OR2W1, read-out: log EC50 (Table 4 value), OR2W1 (converted)): 9.55 µM
SMILES: CCCCCC(=O)CC [3-Octanone]

EC50 ([4]; receptor MOR256-17, 0 = no response, read-out: log EC50, MOR256-17 (converted)): 14.5 µM
log EC50, MOR41-1 [1, 6]: −5.008
log EC50, MOR271-1 ([1]; 0 = no response): −4.824
EC50 [3, 7]: 434 µM
SMILES: CCCC(=O)C(C)=O [23-Haxanedione]
